From patent publication US9115093B2, “Substituted bicyclic dihydropyrimidinones and their use as inhibitors of neutrophil elastase activity” (Boehringer Ingelheim International GmbH, priority 2013, dated 2015)
pIC50: −log10 of the molar value.

Molecular target: T1, neutrophil elastase (Homo sapiens, UniProt P08246)
T1 sequence (P08246 30-247 limits assumed): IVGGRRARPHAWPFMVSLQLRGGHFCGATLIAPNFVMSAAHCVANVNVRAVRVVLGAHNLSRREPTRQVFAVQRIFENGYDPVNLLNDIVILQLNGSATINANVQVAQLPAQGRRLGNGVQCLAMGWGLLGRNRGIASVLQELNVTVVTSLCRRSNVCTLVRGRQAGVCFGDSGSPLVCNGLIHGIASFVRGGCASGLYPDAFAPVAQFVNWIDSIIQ
Assay: Human Neutrophil Elastase Assay
Assay type: biochemical
Set-up: purchased Calbiochem 324681
Details: substrate MeOSuc-Ala-Ala-Pro-Val-AMC, pH 7.5, room temperature
Outline: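 Readout: AMC fluorescence (ex 380, em 460 nm) after 60 min room-temperature reaction with 250 nM MeOSuc-AAPV-AMC, following 15 min compound–enzyme preincubation. Buffer: Tris/NaCl pH 7.5, 0.01% BSA.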

SMILES	pIC50
CN(C)C(=O)N1C(=O)N(c2cccc(C(F)(F)F)c2)C2=C(C(=O)CCC2)C1c1ccc(C#N)cc1 (centres unmarked) [Example 38, 4-(4-Cyanophenyl)-N,N-dimethyl-2,5-dioxo-1-(3-(trifluoromethyl)phenyl)-1,2,5,6,7,8-hexahydroquinazoline-3(4H)-carboxamide]	7.17
CS(=O)(=O)c1cc(C#N)ccc1C1C2=C(CCCC2=O)N(c2cccc(C(F)(F)F)c2)C(=O)N1CC1CCOCC1 (centres unmarked) [Example 58.5]	8.72
CNC(=O)N1C(=O)N(c2cccc(C(F)F)c2)C2=C(C(=O)CCC2)C1c1ccc(C#N)cc1S(C)(=O)=O (centres unmarked) [Example 50, 4-(4-Cyano-2-(methylsulfonyl)phenyl)-1-(3-(difluoromethyl)phenyl)-N-methyl-2,5-dioxo-1,2,5,6,7,8-hexahydroquinazoline-3(4H)-carboxamide]	> 9.00
COc1cc(C2CC(=O)C3=C(C2)N(c2cccc(C(F)(F)F)c2)C(=O)NC3c2ccc(C#N)cc2)cc(OC)c1OC (centres unmarked) [Example 8, 4-(2,5-Dioxo-1-(3-(trifluoromethyl)phenyl)-7-(3,4,5-trimethoxyphenyl)-1,2,3,4,5,6,7,8-octahydroquinazolin-4-yl)benzonitrile]	7.58
CN(C)C(=O)CN1C(=O)N(c2cccc(C(F)(F)F)c2)C2=C(C(=O)CCC2)C1c1ccc(C#N)cc1S(C)(=O)=O (centres unmarked) [Example 62, 2-(4-(4-Cyano-2-(methylsulfonyl)phenyl)-2,5-dioxo-1-(3-(trifluoromethyl)phenyl)-1,2,5,6,7,8-hexahydroquinazolin-3(4H)-yl)-N,N-dimethylacetamide]	8.92
CS(=O)(=O)N1C(=O)N(c2cccc(C(F)(F)F)c2)C2=C(C(=O)CCC2)C1c1ccc(C#N)cc1 (centres unmarked) [Example 43, 4-(3-(Methylsulfonyl)-2,5-dioxo-1-(3-(trifluoromethyl)phenyl)-1,2,3,4,5,6,7,8-octahydroquinazolin-4-yl)benzonitrile]	8.40
CCS(=O)(=O)c1cc(C#N)ccc1C1NC(=O)N(c2cccc(C(F)(F)F)c2)C2=C1C(=O)CCC2 (centres unmarked) [Example 54, 4-(2,5-Dioxo-1-(3-(trifluoromethyl)phenyl)-1,2,3,4,5,6,7,8-octahydroquinazolin-4-yl)-3-(ethylsulfonyl)benzonitrile]	8.12
CS(=O)(=O)c1cc(C#N)ccc1[C@@H]1C2=C(CCCC2=O)N(c2cccc(C(F)(F)F)c2)C(=O)N1C(=O)NC1(C#N)CC1 [Example 75.8]	> 9.00
COCCNC(=O)N1C(=O)N(c2cccc(C(F)(F)F)c2)C2=C(C(=O)CCC2)[C@H]1c1ccc(C#N)cc1S(C)(=O)=O [Example 75.6]	> 9.00
Cc1cc(C#N)ccc1C1NC(=O)N(c2cccc(C(F)(F)F)c2)C2=C1C(=O)CCC2 (centres unmarked) [Example 55, 4-(2,5-Dioxo-1-(3-(trifluoromethyl)phenyl)-1,2,3,4,5,6,7,8-octahydroquinazolin-4-yl)-3-methylbenzonitrile]	7.73
Cn1ccc(CN2C(=O)N(c3cccc(C(F)(F)F)c3)C3=C(C(=O)CCC3)C2c2ccc(C#N)cc2)n1 (centres unmarked) [Example 24.3]	7.95
CS(=O)(=O)c1cc(C#N)ccc1C1NC(=O)N(c2ccnc(C(F)(F)F)c2)C2=C1C(=O)CCC2 (centres unmarked) [Example 57, 4-(2,5-Dioxo-1-(2-(trifluoromethyl)pyridin-4-yl)-1,2,3,4,5,6,7,8-octahydroquinazolin-4-yl)-3-(methylsulfonyl)benzonitrile]	7.14
COC(=O)c1cc(S(=O)(=O)N2C(=O)N(c3cccc(C(F)(F)F)c3)C3=C(C(=O)CCC3)C2c2ccc(C#N)cc2)cs1 (centres unmarked) [Example 44, Methyl 4-(4-(4-Cyanophenylcyanophenyl)-2,5-dioxo-1-(3-(trifluoromethyl)phenyl)-1,2,5,6,7,8-hexahydroquinazolin-3(4H)-ylsulfonyl)thiophene-2-carboxylate]	7.66
CS(=O)(=O)c1cc(C#N)ccc1C1C2=C(CCCC2=O)N(c2cccc(C(F)(F)F)c2)C(=O)N1CCC1CCOCC1 (centres unmarked) [Example 58.6]	> 9.00
Cn1ccc(CN2C(=O)N(c3cccc(C(F)(F)F)c3)C3=C(C(=O)CCC3)C2c2ccc(C#N)cc2)cc1=O (centres unmarked) [Example 27, 4-(1-(3-(Trifluoromethyl)phenyl)-3-((1-methyl-2-oxo-1,2-dihydropyridin-4-yl)methyl)-2,5-dioxo-1,2,3,4,5,6,7,8-octahydroquinazolin-4-yl)benzonitrile]	7.97
CS(=O)(=O)c1cc(C#N)ccc1[C@@H]1C2=C(CCCC2=O)N(c2cccc(C(F)(F)F)c2)C(=O)N1C(=O)NC1COC1 [Example 75.5]	> 9.00
CS(=O)(=O)N1C(=O)N(c2ccnc(C(F)(F)F)c2)C2=C(C(=O)CCC2)C1c1ccc(C#N)cc1 (centres unmarked) [Example 69, 4-(3-(Methylsulfonyl)-2,5-dioxo-1-(2-(trifluoromethyl)pyridin-4-yl)-1,2,3,4,5,6,7,8-octahydroquinazolin-4-yl)benzonitrile]	7.62
CS(=O)(=O)N1C(=O)N(c2cccc(C(F)(F)F)c2)C2=C(C(=O)CCC2)C1c1ccc(C#N)cc1Cl (centres unmarked) [Example 67, 3-Chloro-4-(3-(methylsulfonyl)-2,5-dioxo-1-(3-(trifluoromethyl)phenyl)-1,2,3,4,5,6,7,8-octahydroquinazolin-4-yl)benzonitrile]	8.17
COC(=O)c1ccc(CN2C(=O)N(c3cccc(C(F)(F)F)c3)C3=C(C(=O)CCC3)C2c2ccc(C#N)cc2)o1 (centres unmarked) [Example 28, Methyl 5-((4-(4-Cyanophenyl)-2,5-dioxo-1-(3-(trifluoromethyl)phenyl)-1,2,5,6,7,8-hexahydroquinazolin-3(4H)-yl)methyl)furan-2-carboxylate]	7.54
COc1cc(C#N)ccc1C1NC(=O)N(c2cccc(C(F)(F)F)c2)C2=C1C(=O)CCC2 (centres unmarked) [Example 53, 4-(2,5-Dioxo-1-(3-(trifluoromethyl)phenyl)-1,2,3,4,5,6,7,8-octahydroquinazolin-4-yl)-3-methoxybenzonitrile]	7.47

The next lines start with the values.

pIC50	SMILES
7.56	COC(=O)c1cc(S(=O)(=O)N2C(=O)N(c3cccc(C(F)(F)F)c3)C3=C(C(=O)CCC3)C2c2ccc(C#N)cc2)oc1C (centres unmarked) [Example 44.13]
8.00	N#Cc1ccc(C2C3=C(CCCC3=O)N(c3cccc(C(F)(F)F)c3)C(=O)N2CC(=O)NCC2CCCO2)cc1 (centres unmarked) [Example 36.24]
> 9.00	CCNC(=O)N1C(=O)N(c2cccc(C(F)(F)F)c2)C2=C(C(=O)CCC2)C1c1ccc(C#N)cc1 (centres unmarked) [Example 70.1]
7.77	CN1CCC(NC(=O)CN2C(=O)N(c3cccc(C(F)(F)F)c3)C3=C(C(=O)CCC3)C2c2ccc(C#N)cc2)CC1 (centres unmarked) [Example 36.38]
8.62	CN(C(=O)CN1C(=O)N(c2cccc(C(F)(F)F)c2)C2=C(C(=O)CCC2)C1c1ccc(C#N)cc1)C1CC1 (centres unmarked) [Example 36.4]
8.68	N#Cc1ccc(C2C3=C(CCCC3=O)N(c3cccc(C(F)(F)F)c3)C(=O)N2CC(=O)N2CCC(O)C2)cc1 (centres unmarked) [Example 36.8]
8.00	N#Cc1ccc(C2C3=C(CCCC3=O)N(c3cccc(C(F)(F)F)c3)C(=O)N2CC(=O)NCCN2CCCC2=O)cc1 (centres unmarked) [Example 36.58]
7.94	N#Cc1ccc(C2C3=C(CCCC3=O)N(c3cccc(C(F)(F)F)c3)C(=O)N2S(=O)(=O)c2ccccc2C#N)cc1 (centres unmarked) [Example 44.11]
8.44	N#Cc1ccc(C2C3=C(CCCC3=O)N(c3cccc(C(F)(F)F)c3)C(=O)N2CC(=O)N2CCC3(CC3)C2)cc1 (centres unmarked) [Example 36.16]
8.85	N#Cc1ccc(C2C3=C(CCCC3=O)N(c3cccc(C(F)(F)F)c3)C(=O)N2C(=O)NCC2CC2)cc1 (centres unmarked) [Example 70.5]
8.38	CN1CCN(C(=O)CN2C(=O)N(c3cccc(C(F)(F)F)c3)C3=C(C(=O)CCC3)C2c2ccc(C#N)cc2)CC1=O (centres unmarked) [Example 36.37]
8.07	CN1CC(CNC(=O)CN2C(=O)N(c3cccc(C(F)(F)F)c3)C3=C(C(=O)CCC3)C2c2ccc(C#N)cc2)CC1=O (centres unmarked) [Example 36.59]
7.69	COCCCNC(=O)CN1C(=O)N(c2cccc(C(F)(F)F)c2)C2=C(C(=O)CCC2)C1c1ccc(C#N)cc1 (centres unmarked) [Example 36.13]
8.68	N#Cc1ccc(C2C3=C(CCCC3=O)N(c3cccc(C(F)(F)F)c3)C(=O)N2C(=O)NCC2(O)CCC2)cc1 (centres unmarked) [Example 70.13]
7.63	CN(C)CCN(C)C(=O)N1C(=O)N(c2cccc(C(F)(F)F)c2)C2=C(C(=O)CCC2)C1c1ccc(C#N)cc1 (centres unmarked) [Example 39.11]
8.10	N#Cc1ccc(C2C3=C(CCCC3=O)N(c3cccc(C(F)(F)F)c3)C(=O)N2CC(=O)N2CCN3CCCC3C2)cc1 (centres unmarked) [Example 36.56]
7.99	CC1CCN(C(=O)CN2C(=O)N(c3cccc(C(F)(F)F)c3)C3=C(C(=O)CCC3)C2c2ccc(C#N)cc2)CC1 (centres unmarked) [Example 36.19]
7.93	N#Cc1ccc(C2C3=C(CCCC3=O)N(c3cccc(C(F)(F)F)c3)C(=O)N2CC(=O)NCc2ccc(=O)[nH]c2)cc1 (centres unmarked) [Example 36.52]
8.47	CS(=O)(=O)CS(=O)(=O)N1C(=O)N(c2cccc(C(F)(F)F)c2)C2=C(C(=O)CCC2)C1c1ccc(C#N)cc1 (centres unmarked) [Example 44.9]
8.09	CC(C)(O)CNC(=O)CN1C(=O)N(c2cccc(C(F)(F)F)c2)C2=C(C(=O)CCC2)C1c1ccc(C#N)cc1 (centres unmarked) [Example 36.14]
7.86	CN(Cc1ccccc1)C(=O)CN1C(=O)N(c2cccc(C(F)(F)F)c2)C2=C(C(=O)CCC2)C1c1ccc(C#N)cc1 (centres unmarked) [Example 36.47]
9.00	Cn1ccc(CNC(=O)N2C(=O)N(c3cccc(C(F)(F)F)c3)C3=C(C(=O)CCC3)C2c2ccc(C#N)cc2)n1 (centres unmarked) [Example 39.13]
8.85	N#Cc1ccc(C2C3=C(CCCC3=O)N(c3cccc(C(F)(F)F)c3)C(=O)N2C(=O)NCC2(O)CC2)cc1 (centres unmarked) [Example 70.7]
8.21	N#Cc1ccc(C2C3=C(CCCC3=O)N(c3cccc(C(F)(F)F)c3)C(=O)N2CC(=O)N2CCn3cccc3C2)cc1 (centres unmarked) [Example 36.48]
